From patent US20200270309A1, “MALEIMIDE GROUP-MODIFIED ANGIOGENESIS INHIBITOR HM-1 AND USE THEREOF” (NANJING ANJI BIOLOGICAL TECHNOLOGY CO., LTD, priority 2017, published 2020)
Peptide text beside a SMILES is read from it. * marks the point of attachment. MaleimidoPEG4propanoyl = O=C1C=CC(=O)N1CCOCCOCCOCCOCCC(=O)*; X20 = O=C1C=CC(=O)N1CCOCCOCCOCCOCCOCCCC(=O)*; X4 = O=C1C=CC(=O)N1CCOCCOCCOCCOCCCCCCCC(=O)*; X53 = O=C1C=CC(=O)N1CCOCCOCCOCCOCCCCCCC(=O)*; X24 = O=C1C=CC(=O)N1CCOCCOCCOCCOCCOCCC(=O)*; X27 = O=C1C=CC(=O)N1CCOCCOCCOCCOCCCCCC(=O)*; X19 = O=C1C=CC(=O)N1CCOCCOCCOCCOCCOCC(=O)*; X25 = O=C1C=CC(=O)N1CCOCCOCCOCCOCCCCC(=O)*; X10 = O=C1C=CC(=O)N1CCOCCOCCOCCOCCCC(=O)*; X6 = O=C1C=CC(=O)N1CCOCCOCCOCCCCCCCC(=O)*; X35 = O=C1C=CC(=O)N1CCOCCOCCOCCOCC(=O)*

Assay: Half-lives and pharmacokinetic parameters of polypeptides vs HM-1
Details: in vivo; for half-life: T1/2β (half-life)

Structure (SMILES) | AUC(0-inf) | MRT inf | clearance | half-life
C[C@H](NC(=O)CNC(=O)[C@H](CCCNC(=N)N)NC(=O)CCCCCCCOCCOCCOCCN1C(=O)C=CC1=O)C(=O)N[C@@H](CC(=O)O)C(=O)N[C@@H](CCCNC(=N)N)C(=O)N[C@@H](C)C(=O)NCC(=O)NCC(=O)NCC(=O)NCC(=O)N[C@@H](CCCNC(=N)N)C(=O)NCC(=O)N[C@@H](CC(=O)O)C(=O)O [X69] (X6-RGADRAGGGGRGD-OH) | 26900 ± 8290 ng·h/mL | 48.2 ± 14.3 h | 0.62 mL/min/kg | 33.38 ± 0.32 h
C[C@H](NC(=O)CNC(=O)[C@H](CCCNC(=N)N)NC(=O)COCCOCCOCCOCCN1C(=O)C=CC1=O)C(=O)N[C@@H](CC(=O)O)C(=O)N[C@@H](CCCNC(=N)N)C(=O)N[C@@H](C)C(=O)NCC(=O)NCC(=O)NCC(=O)NCC(=O)N[C@@H](CCCNC(=N)N)C(=O)NCC(=O)N[C@@H](CC(=O)O)C(=O)O [X70] (X35-RGADRAGGGGRGD-OH) | 28000 ± 8160 ng·h/mL | 50.2 ± 10.5 h | 0.595 mL/min/kg | 34.76 ± 0.26 h
C[C@H](NC(=O)CNC(=O)[C@H](CCCNC(=N)N)NC(=O)CCOCCOCCOCCOCCN1C(=O)C=CC1=O)C(=O)N[C@@H](CC(=O)O)C(=O)N[C@@H](CCCNC(=N)N)C(=O)N[C@@H](C)C(=O)NCC(=O)NCC(=O)NCC(=O)NCC(=O)N[C@@H](CCCNC(=N)N)C(=O)NCC(=O)N[C@@H](CC(=O)O)C(=O)O [X71] (MaleimidoPEG4propanoyl-RGADRAGGGGRGD-OH) | 28300 ± 8140 ng·h/mL | 50.7 ± 13.4 h | 0.588 mL/min/kg | 35.13 ± 0.34 h
C[C@H](NC(=O)CNC(=O)[C@H](CCCNC(=N)N)NC(=O)CCCOCCOCCOCCOCCN1C(=O)C=CC1=O)C(=O)N[C@@H](CC(=O)O)C(=O)N[C@@H](CCCNC(=N)N)C(=O)N[C@@H](C)C(=O)NCC(=O)NCC(=O)NCC(=O)NCC(=O)N[C@@H](CCCNC(=N)N)C(=O)NCC(=O)N[C@@H](CC(=O)O)C(=O)O [X72] (X10-RGADRAGGGGRGD-OH) | 33800 ± 7140 ng·h/mL | 60.5 ± 12.3 h | 0.493 mL/min/kg | 41.92 ± 0.29 h
C[C@H](NC(=O)CNC(=O)[C@H](CCCNC(=N)N)NC(=O)CCCCOCCOCCOCCOCCN1C(=O)C=CC1=O)C(=O)N[C@@H](CC(=O)O)C(=O)N[C@@H](CCCNC(=N)N)C(=O)N[C@@H](C)C(=O)NCC(=O)NCC(=O)NCC(=O)NCC(=O)N[C@@H](CCCNC(=N)N)C(=O)NCC(=O)N[C@@H](CC(=O)O)C(=O)O [X73] (X25-RGADRAGGGGRGD-OH) | 26700 ± 8240 ng·h/mL | 47.9 ± 13.6 h | 0.623 mL/min/kg | 33.16 ± 0.26 h
C[C@H](NC(=O)CNC(=O)[C@H](CCCNC(=N)N)NC(=O)CCCCCOCCOCCOCCOCCN1C(=O)C=CC1=O)C(=O)N[C@@H](CC(=O)O)C(=O)N[C@@H](CCCNC(=N)N)C(=O)N[C@@H](C)C(=O)NCC(=O)NCC(=O)NCC(=O)NCC(=O)N[C@@H](CCCNC(=N)N)C(=O)NCC(=O)N[C@@H](CC(=O)O)C(=O)O [X74] (X27-RGADRAGGGGRGD-OH) | 33700 ± 7090 ng·h/mL | 60.4 ± 13.7 h | 0.495 mL/min/kg | 41.82 ± 0.29 h
C[C@H](NC(=O)CNC(=O)[C@H](CCCNC(=N)N)NC(=O)CCCCCCOCCOCCOCCOCCN1C(=O)C=CC1=O)C(=O)N[C@@H](CC(=O)O)C(=O)N[C@@H](CCCNC(=N)N)C(=O)N[C@@H](C)C(=O)NCC(=O)NCC(=O)NCC(=O)NCC(=O)N[C@@H](CCCNC(=N)N)C(=O)NCC(=O)N[C@@H](CC(=O)O)C(=O)O [X75] (X53-RGADRAGGGGRGD-OH) | 26700 ± 6960 ng·h/mL | 47.8 ± 13.9 h | 0.623 mL/min/kg | 33.15 ± 0.25 h
C[C@H](NC(=O)CNC(=O)[C@H](CCCNC(=N)N)NC(=O)CCCCCCCOCCOCCOCCOCCN1C(=O)C=CC1=O)C(=O)N[C@@H](CC(=O)O)C(=O)N[C@@H](CCCNC(=N)N)C(=O)N[C@@H](C)C(=O)NCC(=O)NCC(=O)NCC(=O)NCC(=O)N[C@@H](CCCNC(=N)N)C(=O)NCC(=O)N[C@@H](CC(=O)O)C(=O)O [X76] (X4-RGADRAGGGGRGD-OH) | 33900 ± 7640 ng·h/mL | 60.6 ± 10.5 h | 0.492 mL/min/kg | 42.01 ± 0.33 h
C[C@H](NC(=O)CNC(=O)[C@H](CCCNC(=N)N)NC(=O)COCCOCCOCCOCCOCCN1C(=O)C=CC1=O)C(=O)N[C@@H](CC(=O)O)C(=O)N[C@@H](CCCNC(=N)N)C(=O)N[C@@H](C)C(=O)NCC(=O)NCC(=O)NCC(=O)NCC(=O)N[C@@H](CCCNC(=N)N)C(=O)NCC(=O)N[C@@H](CC(=O)O)C(=O)O [X77] (X19-RGADRAGGGGRGD-OH) | 34600 ± 8180 ng·h/mL | 61.9 ± 9.54 h | 0.482 mL/min/kg | 42.91 ± 0.25 h
C[C@H](NC(=O)CNC(=O)[C@H](CCCNC(=N)N)NC(=O)CCOCCOCCOCCOCCOCCN1C(=O)C=CC1=O)C(=O)N[C@@H](CC(=O)O)C(=O)N[C@@H](CCCNC(=N)N)C(=O)N[C@@H](C)C(=O)NCC(=O)NCC(=O)NCC(=O)NCC(=O)N[C@@H](CCCNC(=N)N)C(=O)NCC(=O)N[C@@H](CC(=O)O)C(=O)O [X78] (X24-RGADRAGGGGRGD-OH) | 29800 ± 8510 ng·h/mL | 53.4 ± 9.94 h | 0.558 mL/min/kg | 37.02 ± 0.31 h
C[C@H](NC(=O)CNC(=O)[C@H](CCCNC(=N)N)NC(=O)CCCOCCOCCOCCOCCOCCN1C(=O)C=CC1=O)C(=O)N[C@@H](CC(=O)O)C(=O)N[C@@H](CCCNC(=N)N)C(=O)N[C@@H](C)C(=O)NCC(=O)NCC(=O)NCC(=O)NCC(=O)N[C@@H](CCCNC(=N)N)C(=O)NCC(=O)N[C@@H](CC(=O)O)C(=O)O [X79] (X20-RGADRAGGGGRGD-OH) | 30500 ± 8350 ng·h/mL | 54.6 ± 10.2 h | 0.547 mL/min/kg | 37.87 ± 0.32 h
